Columns and labels:
PARP-1 (L877A) = molecular target: T1, PARP-1 (L877A) (Homo sapiens, UniProt P09874, L877A); test: PARP-1 enzyme kinetics assay (LC-HPLC of nicotinamide formation); assay type: biochemical; settings: 250 nM PARP-1(L877A), 10-500 μM analog, 25° C., 5 minutes
T1 construct: His10; made in house; host or cells: E. coli BL21(DE3) (inferred)
Method: (§1) The enzyme kinetics of wild-type and analog-sensitive mutants of human PARP-1 were determined essentially as previously described (Jiang et al., 2010). Purified PARP-1 proteins were incubated for 5 minutes in PARP Enzyme Kinetics Buffer (50 mM Tris.HCl, pH 7.9, 4 mM MgCl2) containing 0.5 mg/mL sonicated salmon sperm DNA (Stratagene) at 25° C. with 10, 20, 30, 50, 100, 250, and 500 μM NAD^+ or 8-Bu(3-yne)T-NAD^+. The concentrations of the purified PARP-1 proteins were (1) 25 nM for PARP-1 with NAD^+, (2) 50 nM for PARP-1(L877A) with NAD^+, and […] 250 nM for PARP-1 and PARP-1(L877A) with 8-bu(3-yne)T-NAD^+. The reactions were brought to 450 mM perchloric acid (HClO4) to stop them, incubated for 5 minutes on ice, and then brought to […] potassium carbonate (K2CO3) to quench them. The quenched reactions were centrifuged at maximum speed in a microcentrifuge at 4° C., and the supernatant containing small molecules from the automodification reaction was collected.
(§2) The supernatants from the extracted ADP-ribosylation reactions were analyzed using a Shimadzu LCMS-QP8000α with a Phenomenex Kinetex C18 column (150×4.6 mm, 5 μm XB-C18 100A) monitored at 260 nm. […] Quantitative values for the small molecules and metabolites were obtained by comparison to a standard curve. […]

PARP-1 = molecular target: T2, PARP-1 (Homo sapiens, UniProt P09874); test: as above; assay type: biochemical; settings: 250 nM PARP-1, 10-500 μM analog; data not shown
T2 construct: His10; made in house; host or cells: E. coli BL21(DE3) (inferred)
T2 sequence (P09874 whole entry): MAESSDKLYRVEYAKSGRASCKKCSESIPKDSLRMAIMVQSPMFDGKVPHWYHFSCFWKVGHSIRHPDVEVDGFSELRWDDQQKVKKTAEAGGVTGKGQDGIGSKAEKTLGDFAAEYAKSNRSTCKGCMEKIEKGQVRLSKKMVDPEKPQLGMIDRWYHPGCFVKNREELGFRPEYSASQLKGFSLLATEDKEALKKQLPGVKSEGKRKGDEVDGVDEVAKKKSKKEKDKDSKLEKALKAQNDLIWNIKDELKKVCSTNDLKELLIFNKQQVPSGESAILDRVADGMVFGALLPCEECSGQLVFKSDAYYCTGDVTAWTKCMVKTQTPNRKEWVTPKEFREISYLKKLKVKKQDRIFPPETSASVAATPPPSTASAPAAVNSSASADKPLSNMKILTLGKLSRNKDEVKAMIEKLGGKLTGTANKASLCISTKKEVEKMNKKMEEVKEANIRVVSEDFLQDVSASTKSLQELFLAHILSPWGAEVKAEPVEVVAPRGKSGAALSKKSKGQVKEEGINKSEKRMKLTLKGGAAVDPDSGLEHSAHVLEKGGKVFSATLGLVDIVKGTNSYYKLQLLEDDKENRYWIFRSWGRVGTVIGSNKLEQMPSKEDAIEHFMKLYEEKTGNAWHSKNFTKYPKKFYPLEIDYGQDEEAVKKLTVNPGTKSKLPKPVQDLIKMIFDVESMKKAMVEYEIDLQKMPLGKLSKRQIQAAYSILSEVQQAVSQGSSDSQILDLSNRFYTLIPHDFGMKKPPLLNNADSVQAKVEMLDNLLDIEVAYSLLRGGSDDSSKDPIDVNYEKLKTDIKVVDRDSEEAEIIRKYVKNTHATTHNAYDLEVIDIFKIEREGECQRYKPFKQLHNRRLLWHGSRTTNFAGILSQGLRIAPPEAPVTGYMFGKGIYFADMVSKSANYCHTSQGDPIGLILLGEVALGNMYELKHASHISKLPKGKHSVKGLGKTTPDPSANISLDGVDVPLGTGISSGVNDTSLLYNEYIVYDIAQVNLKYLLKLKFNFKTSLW
Method: as §1, §2

T1 sequence (P09874 whole entry L877A): as the sequence (P09874 whole entry) above, with L877A counted along it

C#CCCSc1nc2c(N)ncnc2n1[C@@H]1O[C@H](COP(=O)(O)OP(=O)(O)OC[C@H]2O[C@@H]([n+]3cccc(C(N)=O)c3)C(O)C2O)[C@H](O)C1O (some centres unmarked) [8-Bu(3-yne)T-NAD^+]
enzyme kinetics compared to PARP-1 and NAD+ (PARP-1 (L877A)): nearing wild-type enzyme kinetics | saturation of PARylation activity (PARP-1): No saturation was detectable

From patent US9926340B2, “NAD analogs and methods of using said NAD analogs in determining ribosylation of proteins with PARP mutants” (The Board of Regents of the University of Texas System, priority 2015, dated 2018)
